5 molecules from patent US9580463B2 (BRISTOL-MYERS SQUIBB COMPANY, priority 2013, dated 2017) can be followed below.

Like-named read-outs stand apart in the source and are kept apart here.

For the series the following is noted: rcm bond, 15-membered ring, Hoveyda-Grubbs II, DCE, 80.0 °C.

Turning to `COC[C@@H]1CC(C)CC/C=C\[C@@H]2C[C@@]2(C(=O)NS(=O)(=O)C2CC2)NC(=O)[C@@H]2C[C@@H](O)CN2C(=O)[C@H]1NC(=O)OC(C)(C)C` (some centres unmarked), the ring closure, isolated yield (from C=CCCC(C)C[C@@H](COC)[C@H](NC(=O)OC(C)(C)C)C(=O)N1C[C@H](O)C[C@H]1C(=O)N[C@]1(C(=O)NS(=O)(=O)C2CC2)C[C@H]1C=C, 9.2 mM, 4.0 h) amounted to 71%.

The molecule `COC[C@@H]1CC(C)CC/C=C\[C@@H]2C[C@@]2(C(=O)NS(=O)(=O)C2(CF)CC2)NC(=O)[C@@H]2C[C@@H](O)CN2C(=O)[C@H]1NC(=O)OC(C)(C)C` (some centres unmarked) registered a ring closure, isolated yield (from tert-butyl (2S,3R)-1-(((2S,4R)-2-(((1R,2S)-1-(((1-(fluoromethyl)cyclopropyl)sulfonyl)carbamoyl)-2-vinylcyclopropyl)carbamoyl)-4-hydroxypyrrolidin-1-yl)-3-(methoxymethyl)-5-methyl-1-oxonon-8-en-2-yl)carbamate, 5.0 mM) of 45%.

As for `COC[C@@H]1CC(C)CC/C=C\[C@@H]2C[C@@]2(C(=O)NS(=O)(=O)C2(C)CC2)NC(=O)[C@@H]2C[C@@H](O)CN2C(=O)[C@H]1NC(=O)OC(C)(C)C` (some centres unmarked), under “from C=CCCC(C)C[C@@H](COC)[C@H](NC(=O)OC(C)(C)C)C(=O)N1C[C@H](O)C[C@H]1C(=O)N[C@]1(C(=O)NS(=O)(=O)C2(C)CC2)C[C@H]1C=C, 7.5 mM”, the ring closure, isolated yield was determined as 76%.

Molecule `COC[C@@H]1CCCC/C=C\[C@@H]2C[C@@]2(C(=O)NS(=O)(=O)C2(C)CC2)NC(=O)[C@@H]2C[C@@H](O)CN2C(=O)[C@H]1NC(=O)OC(C)(C)C` displayed a ring closure, isolated yield (from C=CCCCC[C@@H](COC)[C@H](NC(=O)OC(C)(C)C)C(=O)N1C[C@H](O)C[C@H]1C(=O)N[C@]1(C(=O)NS(=O)(=O)C2(C)CC2)C[C@H]1C=C, 24.4 mM, 2.0 h) of 55%.

Consider `COC[C@@H]1CCCC/C=C\[C@@H]2C[C@@]2(C(=O)NS(=O)(=O)C2CC2)NC(=O)[C@@H]2C[C@@H](O)CN2C(=O)[C@H]1NC(=O)OC(C)(C)C`, for which the ring closure, isolated yield (from C=CCCCC[C@@H](COC)[C@H](NC(=O)OC(C)(C)C)C(=O)N1C[C@H](O)C[C@H]1C(=O)N[C@]1(C(=O)NS(=O)(=O)C2CC2)C[C@H]1C=C, 10.8 mM, 2.0 h) worked out at 52%.
